For eleven compounds, Ki results are on record in patent US5939560A, “Inhibitors of DP-mediated processes, compositions and therapeutic methods thereof” (Ferring B.V., priority 1993, dated 1999).

Molecules are shown by their SMILES.

For the first test, the target named is pure human DP-IV (Homo sapiens, UniProt P27487). Briefly: Inhibition of pure human DP-IV in vitro, fluorescent substrate Ala-Pro-AFC, Ki from Dixon plots.
Sequence of pure human DP-IV (P27487 whole entry): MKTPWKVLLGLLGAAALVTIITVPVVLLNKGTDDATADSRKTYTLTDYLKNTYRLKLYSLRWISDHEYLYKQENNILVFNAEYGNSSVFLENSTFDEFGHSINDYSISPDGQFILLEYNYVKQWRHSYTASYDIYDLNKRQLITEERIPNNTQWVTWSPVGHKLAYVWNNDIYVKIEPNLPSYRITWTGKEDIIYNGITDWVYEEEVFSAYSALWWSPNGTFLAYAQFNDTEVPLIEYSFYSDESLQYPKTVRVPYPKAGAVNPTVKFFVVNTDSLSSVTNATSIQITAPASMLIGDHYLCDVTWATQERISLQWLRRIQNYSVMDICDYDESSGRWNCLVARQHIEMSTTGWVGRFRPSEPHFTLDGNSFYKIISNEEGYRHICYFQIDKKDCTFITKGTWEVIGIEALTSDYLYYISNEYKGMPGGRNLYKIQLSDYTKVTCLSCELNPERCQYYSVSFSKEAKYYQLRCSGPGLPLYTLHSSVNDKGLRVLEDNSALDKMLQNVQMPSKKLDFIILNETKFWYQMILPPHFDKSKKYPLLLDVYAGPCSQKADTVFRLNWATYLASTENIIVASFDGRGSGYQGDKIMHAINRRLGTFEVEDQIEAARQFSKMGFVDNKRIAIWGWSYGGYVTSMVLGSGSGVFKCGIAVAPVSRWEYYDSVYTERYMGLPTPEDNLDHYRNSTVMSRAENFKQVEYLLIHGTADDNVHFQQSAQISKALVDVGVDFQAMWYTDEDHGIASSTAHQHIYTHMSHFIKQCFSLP
Settings: not given
The procedure: All compounds were tested in vitro against pure human DP-IV (purchased from M & E, Copenhagen, Denmark). […] Ki values were determined using Dixon plots.
On to `N#C[C@@H]1CSCN1C(=O)[C@@H](N)C1CCCC1` [compound 23], for which the Ki was 0.5 nM. Same read-out and setting: the result for `N#C[C@@H]1CCCN1C(=O)[C@H]1CC=CC[C@@H]1N` [compound 35] reads 37 nM; that for `N[C@H]1CCCC[C@@H]1C(=O)N1CCC[C@H]1C=O` [compound 38], 9.8 nM; that for `CC1(C)C2CC3OB(C4CCCN4C(=O)C4CC=CCC4N)OC3(C)C1C2` (centres unmarked) [compound 44], 2 nM. The same measure, in the same setting: with `N[C@@H](CCC(=O)NCCCCCC(=O)OCc1ccccc1)C(=O)N1CCCC1` [compound 59] the figure was 150 nM. Same read-out and setting: with `N[C@@H](CCC(=O)NCCCCCCC(=O)NCCCCCC(=O)O)C(=O)N1CCCC1` [compound 66] the figure was 180 nM.

Compound `N#C[C@@H]1CCCN1C(=O)[C@@H](N)CCC(=O)NCCCCCC(=O)OCc1ccccc1` [compound 97] yielded a Ki of 0.5 nM. `N[C@@H](CCCCNC(=O)CCCNS(=O)(=O)c1c(F)c(F)c(F)c(F)c1F)C(=O)N1CCCC1` [compound 110, H-Lys[CO(CH2)3 NHSO2 Pfp]Prl] showed a Ki of 250 nM. Still for that read-out and setting: with `N#C[C@@H]1CCCN1C(=O)[C@@H](N)CCCCNC(=O)CCCCCCCN` [compound 136] the figure was 17 nM; with `CCCCCCO[C@H](C)[C@H](N)C(=O)N1CCCC1` [compound 143, H-Thr[(CH2)5 CH3]pyrrolidide], 940 nM.

Still in this test, the particulars now being: read-out: Ki against DP-IV; pure human DP-IV, pH 7.8, substrate Ala-Pro-AFC, Dixon plots.
In the case of `CC[C@H](C)[C@H](N)/C=C1\CCC[C@H]1C#N` [compound 150], the Ki came out at 1700 nM.

What is called Ki is a dissociation constant, usually derived from enzyme kinetics or from competition with a known ligand.
